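Five concentrations, 48 hours, 96-well plates. GI50 marks 50% less growth.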 Calls of active or inactive are those of the source. No stated cut-off is given here; in the data, active = GI50 up to about 1.1 µM and inactive = higher.
Columns and labels:
Assay in all cases: growth of human tumour cells (NCI), 48 h
EKVX = test system: EKVX
SNB-75 = test system: SNB-75
T47D = test system: T47D
KM12 = test system: KM12
HOP-92 = test system: HOP-92
COLO 205 = test system: COLO 205
SNB-19 = test system: SNB-19
HCT-15 = test system: HCT-15
RPMI-8226 = test system: RPMI-8226
SW-620 = test system: SW-620
NCI-H522 = test system: NCI-H522
OVCAR-5 = test system: OVCAR-5
NCI-H460 = test system: NCI-H460
SK-MEL-5 = test system: SK-MEL-5
K562 = test system: K562
CCRF-CEM = test system: CCRF-CEM
HCT-116 = test system: HCT-116
M14 = test system: M14
MOLT-4 = test system: MOLT-4
SF-539 = test system: SF-539

| Compound | GI50 (EKVX) | GI50 (SNB-75) | GI50 (T47D) | GI50 (KM12) | GI50 (HOP-92) | GI50 (COLO 205) | GI50 (SNB-19) | GI50 (HCT-15) | GI50 (RPMI-8226) | GI50 (SW-620) | GI50 (NCI-H522) | GI50 (OVCAR-5) | GI50 (NCI-H460) | GI50 (SK-MEL-5) | GI50 (K562) | GI50 (CCRF-CEM) | GI50 (HCT-116) | GI50 (M14) | GI50 (MOLT-4) | GI50 (SF-539) |
| --- | --- | --- | --- | --- | --- | --- | --- | --- | --- | --- | --- | --- | --- | --- | --- | --- | --- | --- | --- | --- |
| CC(C)=CCC[C@@H](C)C1=C(Nc2ccccc2)C(=O)C(C)=C(O)C1=O | 3.86 µM (inactive) | 3.11 µM (inactive) | 6.7 µM (inactive) | 3.42 µM (inactive) | 2.87 µM (inactive) | 2.74 µM (inactive) | 3.77 µM (inactive) | 0.875 µM | 9.66 µM (inactive) | 3.78 µM (inactive) | 3.03 µM (inactive) | 8.95 µM (inactive) | 1.63 µM (inactive) | 2 µM (inactive) | 2.92 µM (inactive) | 0.239 µM (active) | 1.53 µM (inactive) | 3.13 µM (inactive) | 0.719 µM (active) |  |
| CCOc1cc(C=O)c2c(ccc3ccc(OC)c(OC)c32)c1OC | 7.1 µM (inactive) | 36.3 µM (inactive) | 35.7 µM (inactive) | 27.2 µM (inactive) | > 100 µM (inactive) | 32.5 µM (inactive) | > 100 µM (inactive) | 49.7 µM | 15.5 µM (inactive) |  | 38.5 µM (inactive) | > 100 µM (inactive) | 20 µM (inactive) | 52.4 µM (inactive) | 14.5 µM (inactive) | 28.2 µM (inactive) | 36 µM (inactive) | 89.3 µM (inactive) | 13.3 µM (inactive) |  |
| CC1=NN(c2ccccc2)C2(C1)C(Cl)C(=O)N2c1nc2ccccc2s1 (stereo not drawn) | 30.6 µM (inactive) | 80.5 µM (inactive) | 31.5 µM (inactive) | 49.5 µM (inactive) | 73.6 µM (inactive) | 27.3 µM (inactive) | 43 µM (inactive) | 29.9 µM | 18.1 µM (inactive) | 29.9 µM (inactive) | 21.6 µM (inactive) | 41.7 µM (inactive) | 31 µM (inactive) | 20.8 µM (inactive) | 33.6 µM (inactive) | 14.9 µM (inactive) | 21.5 µM (inactive) | 33.2 µM (inactive) | 20.7 µM (inactive) |  |
| COC12C=CC(CC1)C1C(=O)c3c(C)c(C)n(C)c3C(=O)C12 (stereo not drawn) | > 100 µM (inactive) | 67.6 µM (inactive) | > 100 µM (inactive) | 91.4 µM (inactive) |  | > 100 µM (inactive) | > 100 µM (inactive) | 15.4 µM | 85.1 µM (inactive) | > 100 µM (inactive) |  | > 100 µM (inactive) | > 100 µM (inactive) | 19.6 µM (inactive) | > 100 µM (inactive) | > 100 µM (inactive) | 89.5 µM (inactive) | > 100 µM (inactive) | > 100 µM (inactive) | > 100 µM (inactive) |
| COC1CCON1C(=O)c1ccccc1 (stereo not drawn) | > 10 µM (inactive) | > 10 µM (inactive) | > 10 µM (inactive) |  |  | > 10 µM (inactive) | > 10 µM (inactive) | > 10 µM | > 10 µM (inactive) | > 10 µM (inactive) | > 10 µM (inactive) | > 10 µM (inactive) | > 10 µM (inactive) | > 10 µM (inactive) | > 10 µM (inactive) | > 10 µM (inactive) | > 10 µM (inactive) | > 10 µM (inactive) | > 10 µM (inactive) | > 10 µM (inactive) |
| N#Cc1c(-c2ccccc2)cc(-c2ccc(Cl)cc2)[nH]c1=S | 30.4 µM (inactive) | 37.1 µM (inactive) | 18.7 µM (inactive) | 58.5 µM (inactive) | 65.9 µM (inactive) | 25.4 µM (inactive) | 32.8 µM (inactive) | 25.8 µM | 29.2 µM (inactive) | 28.4 µM (inactive) | 27.4 µM (inactive) | 62.4 µM (inactive) | 32.5 µM (inactive) | 17.7 µM (inactive) | 34 µM (inactive) | 26.4 µM (inactive) | 33.1 µM (inactive) | 38.9 µM (inactive) | 28.1 µM (inactive) |  |
| CCOC(=O)c1cnc2oc3ccc(O)cc3c2c1C | 35 µM (inactive) |  | 38.5 µM (inactive) |  | > 100 µM (inactive) | > 100 µM (inactive) | > 100 µM (inactive) | > 100 µM | > 100 µM (inactive) | > 100 µM (inactive) |  | > 100 µM (inactive) | > 100 µM (inactive) | 69.3 µM (inactive) | > 100 µM (inactive) | 32.7 µM (inactive) | > 100 µM (inactive) | > 100 µM (inactive) | 47.4 µM (inactive) | 39.8 µM (inactive) |
| C=CCN1C(=O)CC2[C@@H]3CCc4cc(O)ccc4C3CC[C@]2(C)C1=O (stereo partly drawn) | > 10 µM (inactive) |  | > 10 µM (inactive) | > 10 µM (inactive) | > 10 µM (inactive) | > 10 µM (inactive) | > 10 µM (inactive) | > 10 µM | > 10 µM (inactive) | > 10 µM (inactive) |  | > 10 µM (inactive) | > 10 µM (inactive) | > 10 µM (inactive) | > 10 µM (inactive) | > 10 µM (inactive) | > 10 µM (inactive) | > 10 µM (inactive) | > 10 µM (inactive) | > 10 µM (inactive) |
| NNC1=NC(=O)NC(=O)C1 | > 100 µM (inactive) | > 100 µM (inactive) | > 100 µM (inactive) | > 100 µM (inactive) | 66.4 µM (inactive) | > 100 µM (inactive) | > 100 µM (inactive) | > 100 µM | > 100 µM (inactive) | > 100 µM (inactive) | > 100 µM (inactive) | > 100 µM (inactive) | > 100 µM (inactive) | > 100 µM (inactive) | > 100 µM (inactive) | 68.1 µM (inactive) | > 100 µM (inactive) | > 100 µM (inactive) | > 100 µM (inactive) |  |
| C=C(C)[C@@]12C[C@H](OC(=O)[C@H](O)[C@@H](NC(=O)c3ccccc3)c3ccccc3)C(C)=C1[C@@H](OC(C)=O)C(=O)[C@@]1(C)C([C@@H]2OC(=O)c2cc(F)cc(F)c2)C2(OC(C)=O)CO[C@@H]2C[C@@H]1O (stereo partly drawn) | 1.02 µM (active) | 0.0966 µM (active) | 0.117 µM (active) |  | 2.4 µM (inactive) | 0.0789 µM (active) | 0.238 µM (active) | 0.292 µM | 0.0236 µM (active) | 0.0505 µM (active) |  | 0.165 µM (active) | 0.0348 µM (active) | 0.117 µM (active) | 0.0361 µM (active) | 0.0367 µM (active) | 0.0201 µM (active) | 0.141 µM (active) | 0.0428 µM (active) | 0.0282 µM (active) |
| COc1nc(=O)n(C2CC(F)C(CO)O2)cc1C (stereo not drawn) | > 100 µM (inactive) |  | > 100 µM (inactive) | > 100 µM (inactive) |  | > 100 µM (inactive) | > 100 µM (inactive) | > 100 µM | > 100 µM (inactive) | > 100 µM (inactive) | > 100 µM (inactive) |  | > 100 µM (inactive) | > 100 µM (inactive) | > 100 µM (inactive) | > 100 µM (inactive) | > 100 µM (inactive) | > 100 µM (inactive) | > 100 µM (inactive) | > 100 µM (inactive) |
| CCOC(=O)c1c(NS(=O)(=O)c2ccc(C)cc2)sc2c1CCCC2 | 32.6 µM (inactive) | 27.1 µM (inactive) | 43.3 µM (inactive) | 19 µM (inactive) |  | 19 µM (inactive) | 35.1 µM (inactive) | 15.9 µM | 10.2 µM (inactive) |  |  | 65.3 µM (inactive) | 24.3 µM (inactive) | 31.8 µM (inactive) | 20.6 µM (inactive) | 12.1 µM (inactive) | 21.4 µM (inactive) | 35.8 µM (inactive) | 37.6 µM (inactive) | 29.9 µM (inactive) |
| Nc1cc2nc(-c3ccccc3)cn2cn1 | 29.3 µM (inactive) | 40.2 µM (inactive) | > 100 µM (inactive) | 66.2 µM (inactive) |  | > 100 µM (inactive) | > 100 µM (inactive) | > 100 µM | 65 µM (inactive) | > 100 µM (inactive) |  | 79.6 µM (inactive) | 99.1 µM (inactive) | 35.5 µM (inactive) | > 100 µM (inactive) | 86.5 µM (inactive) | > 100 µM (inactive) | > 100 µM (inactive) | > 100 µM (inactive) | > 100 µM (inactive) |
| COc1cc(-c2nc(SC)nc3c2CCc2ccccc2-3)cc(OC)c1OC | 29.1 µM (inactive) | > 100 µM (inactive) | 26.8 µM (inactive) | 65.9 µM (inactive) | > 100 µM (inactive) | 53.5 µM (inactive) | > 100 µM (inactive) |  | 25.8 µM (inactive) | > 100 µM (inactive) |  | > 100 µM (inactive) |  | 37 µM (inactive) | 22.3 µM (inactive) | > 100 µM (inactive) | 47.8 µM (inactive) | > 100 µM (inactive) | 30.5 µM (inactive) | 83.4 µM (inactive) |
| N#Cc1nn(C(N)=O)c(N)c1C#N | > 100 µM (inactive) | > 100 µM (inactive) | > 100 µM (inactive) | > 100 µM (inactive) |  | > 100 µM (inactive) | > 100 µM (inactive) | > 100 µM |  | > 100 µM (inactive) | > 100 µM (inactive) | > 100 µM (inactive) | > 100 µM (inactive) | > 100 µM (inactive) | > 100 µM (inactive) | > 100 µM (inactive) | > 100 µM (inactive) | > 100 µM (inactive) | > 100 µM (inactive) | > 100 µM (inactive) |
| CCC(=O)/C(=C\I)c1ccccc1 | 19.2 µM (inactive) | 1.52 µM (inactive) | 1.68 µM (inactive) | 6.56 µM (inactive) | 2.16 µM (inactive) | 2.05 µM (inactive) | 15.3 µM (inactive) | 1.8 µM | 3.33 µM (inactive) | 1.58 µM (inactive) |  | 1.84 µM (inactive) | 9.86 µM (inactive) |  | 0.796 µM (active) | 2.74 µM (inactive) | 1.79 µM (inactive) | 2.28 µM (inactive) | 2.23 µM (inactive) | 18.1 µM (inactive) |

From ChEMBL document CHEMBL1201862, “PubChem BioAssay data set” (2004)
